From patent US12606553B2, “Crystalline forms, compositions containing same, and methods of their use” (FOGHORN THERAPEUTICS INC., priority 2021, dated 2026)

Columns and labels:
Assay type in all cases: physicochemical
[1] = Competitive suspension equilibration study; settings: room temperature and 60° C.
Experimental: A competitive suspension equilibration study was carried out to identify the relative stability of the two crystalline forms of the compound of formula (I) in aqueous and organic solvent systems. Competitive suspension equilibration experiments were conducted in ethyl acetate, 50% methanol/water (v/v) and 50% acetonitrile/water (v/v) at room temperature and 60° C. […] Further crystalline forms of the compound of formula (I) (e.g., the first and second crystalline forms of the compound of formula (I)) were added for conversion material and to act as seeds. Each suspension was allowed to stir for 7 or 14 days, and were analyzed via XRPD to determine which form the solids had converted to.

[2] = Evaporative salt and co-crystal screen (1H NMR, HPLC); settings: combined with sodium hydroxide and potassium hydroxide
[3] = Dynamic vapor sorption (DVS), with XRPD on the post-DVS sample; settings: for DVS weight increase during exposure to 80% RH: 25° C., humidity ramped 0 to 95% RH, value at 80% RH; for structural change by XRPD after DVS (exposure to high humidity): XRPD on post-DVS sample; for hygroscopicity classification from DVS: based on weight increase up to 80% RH
Experimental: Dynamic vapor sorption (DVS) was carried out using the TA Instruments Q5000 SA. A predefined amount of the sample, 2.0 to 10.0 mg, was placed in a platinum pan. The sample was allowed to equilibrate at 50° C. at 0% RH for a period of 60 minutes. The sample was then equilibrated at 25° C. before ramping the humidity from 0 to 95% RH at 5% increments every hour. A similar ramp profile was used for desorption cycle. XRPD analysis was also performed on post DVS sample.

[4] = Thermal gravimetric analysis (TGA) and DSC: thermal degradation; settings: heated at 10° C./minute under nitrogen
Experimental: (§1) DSC data was collected on a TA Instruments Q2000 DSC. A predefined amount of the sample, 2.0 to 10.0 mg, was placed in an aluminum pan and heated at 5° C./minute from 25° C. to 220° C. A purge of dry nitrogen at 100 mL/minute was maintained over the sample. The instrument control and data acquisition are acquired using Q Advantage software release version 5.5.23. The data was processed and presented using the TA Universal Analysis 2000 software version 4.5A build 4.5.0.5.
as §1, with “TGA” for “DSC”, “Q5000 TGA.” for “Q2000 DSC.”, “10°” for “5°”, “40°” for “25°”, “300° C., or varied as experimentation dictated.” for “220° C.”, “25” for “100”

[5] = Single solvent slurry screen
Experimental: Magnetic stirrers were added to vials, and the suspensions were allowed to stir at room temperature for 4 days. Solid samples generated were analyzed via XRPD to assess crystallinity and crystal structure.

[6] = Temperature cycled single solvent slurry screen
Experimental: Magnetic stirrers were added to vials, and the suspensions were cycled between 50° C. and 5° C. for three cycles with agitation. Solid samples generated were analyzed via XRPD to assess crystallinity and crystal structure. […] Solid samples were obtained from slurries in all other solvents screened.

[7] = Binary solvent slurry screen; settings: room temperature
Experimental: Solvent combinations were selected based on solvent properties, functionality, and miscibility. […] Magnetic stirrers were added to vials, and the suspensions were allowed to stir at room temperature for 5 days.

Row | chemical stability in a basic environment (1H NMR, HPLC) [2] | DVS weight increase during exposure to 80% RH [3] | structural change by XRPD after DVS (exposure to high humidity) [3] | hygroscopicity classification from DVS [3] | molecular degradation onset (TGA/DSC) [4] [°C] | molecular degradation temperature (TGA/DSC), degradation from [4] [°C] | solubility in THF ([5]; room temperature slurry) | crystal structure after slurry (XRPD), form stability ([5]; single solvents except THF, stirred at room temperature for 4 days) | crystal structure after slurry (XRPD), form stability ([6]; single solvents except THF, cycled between 50° C. and 5° C. for three cycles) | solubility in THF ([6]; temperature cycled slurry) | crystal structure after slurry (XRPD), form stability ([7]; 50/50 (v/v) solvent mixtures except methanol/THF, 5 days) | solubility in methanol/THF ([7]; 50/50 (v/v)) | Compound | form conversion of mixed first and second crystalline forms (XRPD) ([1]; aqueous solvents (methanol/water 14 days, acetonitrile/water 7 days)) | form conversion of mixed first and second crystalline forms (XRPD) ([1]; ethyl acetate, methanol, acetonitrile, within seven days)
1 | molecular degradation was visible |  |  |  |  |  |  |  |  |  |  |  | COC[C@H](NC(=O)c1ccn(S(C)(=O)=O)c1)C(=O)Nc1nc(-c2cccc(N3C[C@@H](C)O[C@@H](C)C3)n2)cs1 [compound of formula (I)] | did not result in the conversion of either crystalline form to the other | fully converted to the second crystalline form
2 |  | 1.4 % (w/w) | no structural changes occurred | slightly hygroscopic | 254.3 | 220 |  |  |  |  |  |  | COC[C@H](NC(=O)c1ccn(S(C)(=O)=O)c1)C(=O)Nc1nc(-c2cccc(N3C[C@@H](C)O[C@@H](C)C3)n2)cs1 [first crystalline form of the compound of formula (I)] |  | 
3 |  | 0.04 % (w/w) | no structural changes occurred | non-hygroscopic |  | 240 | extremely high | the same crystal structure | the same crystal structure | extremely high | the same crystal structure | high | COC[C@H](NC(=O)c1ccn(S(C)(=O)=O)c1)C(=O)Nc1nc(-c2cccc(N3C[C@@H](C)O[C@@H](C)C3)n2)cs1 [second crystalline form of the compound of formula (I)] |  | 
